In patent US8192719B2, “Methods and kits to diagnose growth hormone deficiency by oral administration of EP 1572 or EP 1573 compounds” (Aeterna Zentaris GmbH, priority 2006, dated 2012):
Like-named read-outs stand apart in the source and are kept apart here.

Assay: pharmacokinetic profile of EP 1572 after oral administration in healthy male subjects
Assay type: in vivo
Conditions: human, plasma EP 1572, oral, mean ± SEM; for AUC(0-t): read-out: AUC (0-300) (converted)
Experimental: After a provocative test with EP 1572, the pharmacokinetic profile of EP 1572 and the level of GH released in response to its oral administration were established in 36 healthy male subjects at various doses.
From the subject a blood sample was drawn at 30 and 15 minutes before the administration of EP 1572. A sample of blood was taken from the subject immediately before the aqueous formulation containing 0.5 mg/kg of EP 1572 was orally administered to the subject. Further blood samples were taken from the subject at 15, 30, 60, 90, 120, 150, 180, 210, 240, 270 and 300 minutes from administration and a portion of each sample processed according to the assay protocol outlined below. The level of GH present in each sample was determined by the assay method outlined below and the peak concentration (Cmax) for the subject determined. The remainder of the sample was used to determine the level of EP 1572 present in the systemic circulation (as outlined below).
The organic components in human plasma were extracted using a total of […] of an ethyl acetate/iso-propanol mixture (82.5% and 17.5%, respectively). […] Quantification was performed with EP 1573 as an internal standard (peak area ratio evaluation).
Further dosing studies were carried out wherein the subjects were administered doses of 0.005, 0.05, 0.25 and 0.125 mg/kg each, using the formulations described above.

Cmax (0.05 mg/kg): 0.86 ± 0.24 ng/mL
Tmax (0.05 mg/kg): 75 min
AUC(0-t) (0.05 mg/kg): 1.74 ng·h/mL
Cmax (0.125 mg/kg): 2.33 ± 0.39 ng/mL
Tmax (0.125 mg/kg): 62.5 min
AUC(0-t) (0.125 mg/kg): 5.35 ng·h/mL
Cmax (0.25 mg/kg): 3.92 ± 0.57 ng/mL
Tmax (0.25 mg/kg): 55 min
AUC(0-t) (0.25 mg/kg): 8.67 ng·h/mL
Cmax (0.5 mg/kg): 7.59 ± 0.83 ng/mL
Tmax (0.5 mg/kg): 50 min
AUC(0-t) (0.5 mg/kg): 16.1 ng·h/mL
SMILES: CC(C)(N)C(=O)N[C@H](Cc1c[nH]c2ccccc12)C(=O)N[C@H](Cc1c[nH]c2ccccc12)NC=O [EP 1572, H-Aib-D-Trp-D-gTrp-CHO]
